{"source": "paper PMC4275348", "about": "(Molecular microbiology, 2014)", "key": {"LuxN [1]": {"target": "T1, LuxN (Vibrio campbellii, UniProt A7MRY4)", "assay_type": "cell-based, Vibrio harveyi", "conditions": "for reduction in light production / effect on light production (antagonist activity): 1 μM AHL with 20 nM AI-1, V. harveyi TL25; for mechanism of antagonism: IC50 values measured at various concentrations of AI-1"}, "LuxN [2]": {"target": "T1, LuxN", "conditions": "1 μM AHL; V. harveyi TL25"}, "LuxN^H210N": {"target": "T2, LuxN^H210N (Vibrio campbellii, UniProt A7MRY4, H210N)", "T2 sequence (A7MRY4 1-849 H210N)": "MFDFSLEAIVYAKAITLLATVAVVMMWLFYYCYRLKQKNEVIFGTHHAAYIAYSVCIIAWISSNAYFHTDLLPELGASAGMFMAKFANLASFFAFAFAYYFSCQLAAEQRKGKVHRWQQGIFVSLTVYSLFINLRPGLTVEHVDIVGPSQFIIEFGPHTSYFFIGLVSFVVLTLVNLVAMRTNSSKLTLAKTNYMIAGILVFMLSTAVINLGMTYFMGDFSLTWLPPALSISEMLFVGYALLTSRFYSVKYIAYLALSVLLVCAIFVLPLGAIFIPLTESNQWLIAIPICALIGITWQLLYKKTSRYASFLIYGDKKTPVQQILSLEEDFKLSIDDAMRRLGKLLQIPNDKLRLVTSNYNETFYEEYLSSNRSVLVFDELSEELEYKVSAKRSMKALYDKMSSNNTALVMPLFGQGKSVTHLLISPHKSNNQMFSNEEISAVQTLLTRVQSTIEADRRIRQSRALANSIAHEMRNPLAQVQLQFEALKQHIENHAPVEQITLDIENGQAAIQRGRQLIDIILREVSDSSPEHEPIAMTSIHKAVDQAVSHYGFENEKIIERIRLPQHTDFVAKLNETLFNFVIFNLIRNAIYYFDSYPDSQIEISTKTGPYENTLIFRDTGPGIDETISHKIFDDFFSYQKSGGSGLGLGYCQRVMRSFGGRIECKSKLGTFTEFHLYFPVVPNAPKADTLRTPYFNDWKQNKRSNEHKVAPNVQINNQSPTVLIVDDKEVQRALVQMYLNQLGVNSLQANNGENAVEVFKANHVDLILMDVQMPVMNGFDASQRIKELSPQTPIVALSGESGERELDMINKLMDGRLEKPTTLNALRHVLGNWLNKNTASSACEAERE", "assay": "Bioluminescence of V. harveyi XK006 carrying luxN H210N", "assay_type": "cell-based, Vibrio harveyi", "conditions": "AHLs supplied at 10 μM"}, "luxN^L166A/H210N": {"target": "luxN^L166A/H210N (Vibrio campbellii, UniProt A7MRY4, H210N/L166A)", "conditions": "AHLs added at 1 μM"}, "LuxN^G147D/Y194H": {"target": "T3, LuxN^G147D/Y194H (Vibrio campbellii, UniProt A7MRY4, G147D/Y194H)", "T3 sequence (A7MRY4 1-849 G147D/Y194H)": "T2 sequence (A7MRY4 1-849 H210N) with G147D, Y194H, N210H", "assay": "Bioluminescence of V. harveyi XK006 carrying luxN G147D/Y194H", "assay_type": "cell-based, Vibrio harveyi"}, "luxN^T159I/Y193K": {"target": "T4, luxN^T159I/Y193K (Vibrio campbellii, UniProt A7MRY4, N193K/T159I)", "T4 sequence (A7MRY4 1-849 T159I/N193K)": "T2 sequence (A7MRY4 1-849 H210N) with T159I, N193K, N210H", "assay": "Bioluminescence of V. harveyi XK006 carrying luxN T159I/Y193K", "assay_type": "cell-based, Vibrio harveyi"}, "luxN^S184I/S230P": {"target": "T5, luxN^S184I/S230P (Vibrio campbellii, UniProt A7MRY4, S184I/S230P)", "T5 sequence (A7MRY4 1-849 S184I/S230P)": "T2 sequence (A7MRY4 1-849 H210N) with S184I, N210H, S230P", "assay": "Bioluminescence of V. harveyi XK006 carrying luxN S184I/S230P", "assay_type": "cell-based, Vibrio harveyi"}, "LuxN^L166A": {"target": "LuxN^L166A (Vibrio campbellii, UniProt A7MRY4, L166A)"}}, "note": "Substitutions are numbered along the chain they refer to."}
{"compound": "CCCCCCCC(O)CC(=O)N[C@H]1CCOC1=O", "note": "(stereo partly drawn) [3OH-C10 HSL]", "values": [{"measurement": "reduction in light production", "setting": "LuxN [1]", "result": 30, "unit": "fold"}]}
{"compound": "phenoxy-thiolactone [PTL]", "values": [{"measurement": "mechanism of antagonism", "setting": "LuxN [1]", "result": "behaved similarly to 3O-C12 HSL"}]}
{"compound": "CCCCCCCCCC(=O)N[C@H]1CCOC1=O", "note": "[C10 HSL]", "values": [{"measurement": "mechanism of antagonism", "setting": "LuxN [1]", "result": "behaved similarly to 3O-C12 HSL"}]}
{"compound": "CCCC(O)CC(=O)N[C@H]1CCOC1=O", "note": "(stereo partly drawn) [3OH-C6 HSL]", "values": [{"measurement": "effect on light production (antagonist activity)", "setting": "LuxN [1]", "result": "little effect on light production"}]}
{"compound": "CC(=O)CC(=O)NC1CCOC1=O", "note": "(stereo not drawn) [3O-C4 HSL]", "values": [{"measurement": "effect on light production (antagonist activity)", "setting": "LuxN [1]", "result": "did not decrease light production"}, {"measurement": "induction of light production", "setting": "LuxN [2]", "result": "did not induce light production"}]}
{"compound": "CCCCCCCCCC(O)CC(=O)N[C@H]1CCOC1=O", "note": "(stereo partly drawn) [3OH-C12 HSL]", "values": [{"measurement": "reduction in light production", "setting": "LuxN [1]", "result": 100, "unit": "fold"}]}
{"compound": "CCCCCC(=O)N[C@H]1CCOC1=O", "note": "[C6 HSL]", "values": [{"measurement": "induction of light production", "setting": "LuxN^H210N", "result": "activated modest light production"}, {"measurement": "light production", "setting": "luxN^L166A/H210N", "result": "detected"}]}
{"compound": "CCCCCCCCCCCC(=O)N[C@H]1CCOC1=O", "note": "[C12 HSL]", "values": [{"measurement": "response (dose-dependent light production)", "setting": "LuxN^G147D/Y194H", "result": "none responded"}, {"measurement": "response (dose-dependent light production)", "setting": "luxN^T159I/Y193K", "result": "none responded"}, {"measurement": "response (dose-dependent light production)", "setting": "luxN^S184I/S230P", "result": "none responded"}]}
{"compound": "CCCC(=O)CC(=O)NC1CCOC1=O", "note": "(stereo not drawn) [3O-C6 HSL]", "values": [{"measurement": "light production", "setting": "luxN^L166A/H210N", "result": "detected"}]}
{"compound": "CCCCCC(=O)CC(=O)NC1CCOC1=O", "note": "(stereo not drawn) [3O-C8 HSL]", "values": [{"measurement": "light production", "setting": "luxN^L166A/H210N", "result": "produced maximal light"}, {"measurement": "detection (light production)", "setting": "LuxN^L166A", "result": "only modest detection"}]}
